This passage reports melting point and IC50 results from patent publication US7160901B2, “Substituted indolinones, preparation thereof and their use as pharmaceutical compositions” (Boehringer Ingelheim Pharma GmbH & Co. KG, priority 2000, dated 2007).

Structures are written as SMILES. Read-outs that look alike come from different tables or passages of the source.

Series [1] deals with Leiomyosarcoma tumour cell line SK-UT-1B. The series can be described thus: Test 1: inhibition of the proliferation of cultivated human tumour cells (14C-thymidine incorporation), SK-UT-1B. It counts as cell-based. Conditions: in vitro Test 1, SK-UT-1B cells, 48 hours' incubation, then 14C-thymidine for a further 24 hours, IC50 of inhibition of incorporated 14C-thymidine, read-out: Inhibition of SKUT-1B proliferation. An excerpt: Inhibition of the Proliferation of Cultivated Human Tumour Cells
Cells of the Leiomyosarcoma tumour cell line SK-UT-1B or non-small-cell lung tumour cell line NCI-H460 (obtained from the American Type Culture Collection (ATCC)) were cultivated in Minimum Essential Medium with non-essential amino acids (Gibco), supplemented with sodium pyruvate (1 mMol), glutamine (2 mMol) and 10% foetal calf serum (Gibco) or RPMI1640 Medium (Gibco) and 10% foetal calf serum (Gibco) and harvested in the logarithmic growth phase. Then the SK-UT-1B cells were placed in Cytostar® multi-well plates (Amersham) at a density of 4000 cells per well or 3000 cells per well for NCI-H460 cells and incubated overnight in an incubator. Various concentrations of the compounds (dissolved in DMSO; final concentration: 0.1%) were added to the cells. After 48 hours' incubation, ^14C-thymidine (Amersham) was added to each well and incubation was continued for a further 24 hours. The quantity of ^14C-thymidine which was incorporated into the tumour cells in the presence of the inhibitor and which represents the number of cells in the S phase was measured in a Wallace 1450 Microbeta Liquid Scintillation Counter. IC50 values for the inhibition of the proliferation (=inhibition of incorporated ^14C-thymidine) were calculated, correcting for the background radiation. All the measurements were done twice.
The following Table contains the results obtained with the in vitro Test 1 (++ denotes <0.01 μM, + denotes 0.01–1.0 μM): […]

By melting point is commonly meant the temperature, or range, at which the solid turns liquid. Take `CN(C)Cc1cccc(N/C(=C2\C(=O)Nc3ccc(N(C)S(=O)(=O)c4ccccc4)cc32)c2ccccc2)c1` [Example 210, (Z)-3-[1-(3-dimethylaminomethyl-phenylamino)-1-phenyl-methylidene]-5-(N-methyl-N-phenylsulphonyl-amino)-2-indolinone]: the melting point came out at 226 °C. Same read-out and setting: with `CCOC(=O)Cc1ccc(N/C(=C2\C(=O)Nc3ccc(NS(=O)(=O)c4ccccc4)cc32)c2ccccc2)cc1` [Example 152, (Z)-3-[1-(4-ethoxycarbonylmethyl-phenylamino)-1-phenyl-methylidene]-5-phenylsulphonylamino-2-indolinone] the figure was 248 to 249 °C. On the same count and under the same terms, as for `CC(=O)N(CCN)c1ccc(N/C(=C2\C(=O)Nc3ccc(NS(=O)(=O)c4ccccc4)cc32)c2ccccc2)cc1` [Example 1, (Z)-3-{1-[4-(N-acetyl-N-(2-aminoethyl)-amino)-phenylamino]-1-phenyl-methylidene}-5-phenylsulphonylamino-2-indolinone], the figure is 216 °C. Regarding `CS(=O)(=O)Nc1ccc2c(c1)/C(=C(/Nc1ccc(CN3CCCCC3)cc1)c1ccccc1)C(=O)N2` [Example 98, (Z)-3-[1-(4-piperidinomethyl-phenylamino)-1-phenyl-methylidene]-5-methylsulphonylamino-2-indolinone], the melting point was found to be 266 °C. Moreover, the IC50 in series [1] (Homo sapiens, Skut1B) lay within 10 to 1000 nM. Regarding `O=C1Nc2ccc(N(c3cccnc3)S(=O)(=O)c3ccccc3)cc2/C1=C(/Nc1ccc(CN2CCCCC2)cc1)c1ccccc1` [Example 134, (Z)-3-{1-[4-(piperidinomethyl)-phenylamino]-1-phenyl-methylidene}-5-(pyridin-3-ylphenylsulphonylamino)-2-indolinone], the IC50 in series [1] (Homo sapiens, Skut1B) was less than 10 nM. The same measure, in the same setting: as for `CN1CCN(Cc2ccc(N/C(=C3\C(=O)Nc4ccc(NS(=O)(=O)c5ccccc5)cc43)c3ccccc3)cc2)CC1` [Example 9, (Z)-3-{1-[4-(4-methylpiperazinomethyl)-phenylamino]-1-phenyl-methylidene}-5-phenylsulphonylamino-2-indolinone], the figure is 10 to 1000 nM; as for `O=C1Nc2ccc(NS(=O)(=O)c3cccnc3)cc2/C1=C(/Nc1ccc(C(=O)N2CCCC2)cc1)c1ccccc1` [Example 88, (Z)-3-{1-[4-(pyrrolidin-1-ylcarbonyl)-phenylamino]-1-phenyl-methylidene}-5-(pyridin-3-ylsulphonylamino)-2-indolinone], 10 to 1000 nM; as for `CCS(=O)(=O)Nc1ccc2c(c1)/C(=C(/Nc1ccc(CN(C)C)cc1)c1ccccc1)C(=O)N2` [Example 70, (Z)-3-{1-[4-dimethylaminomethyl-phenylamino]-1-phenyl-methylidene}-5-ethylsulphonylamino-2-indolinone], 10 to 1000 nM.

For the compound `CN(C(=O)CN1CCCCC1)c1ccc(N/C(=C2\C(=O)Nc3ccc(N(C)S(=O)(=O)c4ccccc4)cc32)c2ccccc2)cc1` [Example 209, (Z)-3-{1-[4-(N-methyl-N-piperidinomethylcarbonyl-amino)-phenylamino)-1-phenyl-methylidene}-5-(N-methyl-N-phenylsulphonyl-amino)-2-indolinone], the melting point was 160 °C.

`CC(C)S(=O)(=O)Nc1ccc2c(c1)/C(=C(/Nc1ccc(CN3CCCCC3)cc1)c1ccccc1)C(=O)N2` [Example 101, (Z)-3-{1-[4-(piperidinomethyl)-phenylamino]-1-phenyl-methylidene}-5-isopropylsulphonylamino-2-indolinone]: in series [1] (Homo sapiens, Skut1B), the IC50 is less than 10 nM.

Take `O=C(Cc1ccc(N/C(=C2\C(=O)Nc3ccc(NS(=O)(=O)c4ccccc4)cc32)c2ccccc2)cc1)NCc1ccccc1` [Example 154, (Z)-3-{1-[4-(benzylaminocarbonylmethyl)-phenylamino]-1-phenyl-methylidene}-5-phenylsulphonylamino-2-indolinone]: the melting point lay within 219 to 220 °C. Consider `CN(C)CCN(c1ccc(N/C(=C2\C(=O)Nc3ccc(N(C)S(=O)(=O)c4ccccc4)cc32)c2ccccc2)cc1)S(C)(=O)=O` [Example 207, (Z)-3-{1-[4-(N-(2-dimethylamino-ethyl)-N-methylsulphonyl-amino)-phenylamino)-1-phenyl-methylidene}-5-(N-methyl-N-phenylsulphonyl-amino)-2-indolinone], for which, in series [1] (Homo sapiens, Skut1B), the IC50 fell in the range of 10 to 1000 nM. The same measure, in the same setting: with `O=C1Nc2ccc(NS(=O)(=O)C3CC3)cc2/C1=C(/Nc1ccc(CN2CCCC2)cc1)c1ccccc1` [Example 142, (Z)-3-{1-[4-(pyrrolidin-1-ylmethyl)-phenylamino]-1-phenyl-methylidene}-5-cyclopropylsulphonylamino-2-indolinone] the figure was 10 to 1000 nM. For `CN(C)Cc1ccc(N/C(=C2\C(=O)Nc3ccc(NS(=O)(=O)c4ccccc4)cc32)c2ccccc2)cc1` [Example 36, (Z)-3-[1-(4-dimethylaminomethyl-phenylamino)-1-phenyl-methylidene]-5-phenylsulphonylamino-2-indole], the IC50 in series [1] was less than 10 nM. For `O=C1Nc2ccc(NS(=O)(=O)Cc3ccccc3)cc2/C1=C(/Nc1ccc(CN2CCCC2)cc1)c1ccccc1` [Example 58, (Z)-3-{1-[4-(pyrrolidin-1-ylmethyl)-phenylamino]-1-phenyl-methylidene}-5-benzylsulphonylamino-2-indolinone], the IC50 in series [1] (Homo sapiens, Skut1B) lay in the range of 10 to 1000 nM. On the same count and under the same terms, with `O=C1Nc2ccc(NS(=O)(=O)c3cccc4ccccc34)cc2/C1=C(/Nc1ccc(CN2CCCCC2)cc1)c1ccccc1` [Example 104, (Z)-3-{1-[4-(piperidinomethyl)-phenylamino]-1-phenyl-methylidene}-5-(naphthalin-1-ylsulphonylamino)-2-indolinone] the figure was less than 10 nM. Regarding `CC(=O)N(CCN(C)C)c1ccc(N/C(=C2\C(=O)Nc3ccc(N(C)S(=O)(=O)c4ccccc4)cc32)c2ccccc2)cc1` [Example 208, (Z)-3-{1-[4-(N-(2-dimethylamino-ethyl)-N-acetyl-amino)-phenylamino)-1-phenyl-methylidene}-5-(N-methyl-N-phenylsulphonyl-amino)-2-indolinone], the melting point amounted to 217 °C. On to `CCS(=O)(=O)Nc1ccc2c(c1)/C(=C(/Nc1ccc(CN(C)Cc3ccccc3)cc1)c1ccccc1)C(=O)N2` [Example 71, (Z)-3-{1-[4-(N-benzyl-N-methyl-aminomethyl)-phenylamino]-1-phenyl-methylidene}-5-ethylsulphonylamino-2-indolinone], for which the IC50 in series [1] (Homo sapiens, Skut1B) was in the range of 10 to 1000 nM. On to `CS(=O)(=O)N(CC(N)=O)c1ccc(N/C(=C2\C(=O)Nc3ccc(NS(=O)(=O)c4ccccc4)cc32)c2ccccc2)cc1` [Example 155, (Z)-3-{1-[4-(N-(aminocarbonylmethyl)-N-methylsulphonyl-amino)-phenylamino]-1-phenyl-methylidene}-5-phenylsulphonylamino-2-indolinone], for which the melting point lay within 216 to 217 °C.

Compound `O=C(O)Cc1ccc(N/C(=C2\C(=O)Nc3ccc(NS(=O)(=O)c4ccccc4)cc32)c2ccccc2)cc1` [Example 153, (Z)-3-[1-(4-carboxymethyl-phenylamino)-1-phenyl-methylidene]-5-phenylsulphonylamino-2-indolinone] returned a melting point of 305 to 306 °C.
